Where two headings read alike, the source gives them in different places.

In data set [1] the test system is mouse peritoneal macrophages. The data set can be described thus: Suppression of foaming of macrophages (cholesterol ester synthesis) in vitro. Type of data set: cell-based, mouse (female ICR). The following applies: Mus musculus, Peritoneal macrophage, 5 μM, 16 hours, relative to control as 100%, smaller value = more potent suppression, read-out: Rate of CE synthesis (%). Here is the method:
Activity of the compounds of the present invention for suppressing the foaming of macrophages
(§1) Activity of the compounds of the present invention for suppressing the foaming of macrophages, which triggers arterial sclerosis, was examined by an in vitro experiment using mouse peritoneal macrophages. 15-Week old female ICR mice (Nippon SLC) were subjected to bleeding by cutting off their cervicalis, and Hanks buffer (Nippon Seiyaku) was injected into their peritoneal cavities. After abdominal regions of the mice were massaged, the buffer was recovered immediately, and then the resulting buffer was centrifuged at 1,000 r.p.m. for five minutes to collect peritoneal macrophages. Then, the collected macrophages were suspended in GTI medium (Wako Pure Chemical Industries), and inoculated onto a 24-well microtiter plate. After the macrophages were cultivated at 37° C. under 5% CO2 for two hours, the culture medium was changed with Dulbecco Modified Eagle Medium (MEM, Nippon Seiyaku). The macrophages were further cultivated at 37° C. under 5% CO2 for 16 hours, and then a test compound and liposomes were added to the culture.
1) Test compound: dissolved in DMSO (Wako Pure Chemical Industries),
PC: Phosphatidylcholine (Funakoshi);
PS: Phosphatidylserine (Funakoshi);
DCP: Dicetylphosphate (Funakoshi);
CHOL: Cholesterol (Sigma)
(§2) After cultivation was further continued at 37° C. under 5% CO2 for 16 hours, lipid fraction was extracted with chloroform and methanol. The extracted lipid fraction was dissolved in isopropyl alcohol, and the produced cholesterol ester (CE) was quantified by an enzymatic luminescence method. Yield of the cholesterol ester was calculated as a relative ratio based on yield of the control as 100% where no test compound was added. Cytotoxicity was examined microscopically by observing morphological alteration of cells. In the tables, compound numbers correspond to those of the compounds of present invention described in the examples.

The subject of data set [2] is mouse peritoneal macrophages. Description: Cytotoxicity examined microscopically (morphological alteration of cells). The data set is classed as cell-based, mouse (female ICR). The following applies: 5 μM, observed microscopically. As to the method:
as §1, §2

`COc1ccc2[nH]c(SCCCCCSc3nc4cc(C)ccc4[nH]3)nc2c1` [Compound A4, 1-(2'-(5'-methoxybenzimidazolyl)thio)-5-(2"-(5"-methylbenzimidazolyl)thio)pentane]: the activity at 5 µM in data set [1] (Table 3) is 41%. For the same compound, the Cytotoxicity result in data set [2] (Table 3) is given as “Not observed”.
Taken in the same sequence, the figures for `Oc1ccc2[nH]c(SCCCCCSc3nc4ccccc4[nH]3)nc2c1` [Compound A6, 1-(2'-benzimidazolylthio)-5-(2"-(5"-hydroxybenzimidazolyl)thio)pentane] were 46% and “Not observed”.
Turning to `CC(=O)Nc1nnc(SCCCCCSc2nc3ccccc3[nH]2)n1C` [Compound B9], in data set [1] (Table 4), the activity at 5 µM stood at 35%. Also, the Cytotoxicity entry in data set [2] (Table 4) was “Not observed”.
For the compound `CN(C)C(=O)c1ccc2[nH]c(SCCCCCSc3ccccn3)nc2c1` [Compound B39], the activity at 5 µM in data set [1] (Table 4) was found to be 28%. The Cytotoxicity result in data set [2] (Table 4) was “Not observed”.
For `CCCCCCCCn1nnnc1SCCCCCSc1nc2ccccc2[nH]1` [Compound B11], the activity at 5 µM in data set [1] (Table 4) is 18%. Moreover, the Cytotoxicity entry in data set [2] (Table 4) is “Not observed”.
Consider `c1ccc2[nH]c(SCCCCCSc3nnc(SCCn4ccnc4)s3)nc2c1` [Compound B21], for which the activity at 5 µM in data set [1] (Table 4) is 11%. Further, the Cytotoxicity entry in data set [2] (Table 4) was “Not observed”.
In the same order, the values of `c1ccc2[nH]c(SCCCCCSc3ncc[nH]3)nc2c1` [Compound B1, 1-(2'-benzimidazolylthio)-5-(2"-imidazolylthio)pentane] are 41% and “Not observed”.
For the compound `c1ccc2[nH]c(CCCCCCCSc3nc4ccccc4[nH]3)nc2c1` [Compound A31, 2-(7-(2'-benzimidazolylthio)heptyl)benzimidazole], the activity at 5 µM in data set [1] (Table 3) came out at 53%. Further, in data set [2] (Table 3), the Cytotoxicity result is “Not observed”.
Consider `Cn1c(=O)c2nc(SCCCCCSc3nc4ccccc4[nH]3)[nH]c2n(C)c1=O` [Compound B13], for which the activity at 5 µM in data set [1] (Table 4) was 26%. The Cytotoxicity result in data set [2] (Table 4) is recorded as “Not observed”.
Consider `CC1=CC(C)(C)NC(SCCCCCSc2nc3ccccc3[nH]2)=N1` [Compound B55], for which the activity at 5 µM in data set [1] (Table 4) was determined as 52%. The Cytotoxicity result in data set [2] (Table 4) is given as “Not observed”.
On to `Cc1ccnc(SCCCCCSc2nc3ccccc3[nH]2)c1` [Compound B41], for which the activity at 5 µM in data set [1] (Table 4) is 19%. Also, the Cytotoxicity result in data set [2] (Table 4) is “Not observed”.
For the compound `Clc1ccc2[nH]c(SCCCCCSc3nc4ccccc4[nH]3)nc2c1` [Compound A2, 1-(2'-(5'-chlorobenzimidazolyl)thio)-5-(2"-benzimidazolylthio)pentane], the activity at 5 µM in data set [1] (Table 3) is 52%. Besides, the Cytotoxicity entry in data set [2] (Table 3) is listed as “Not observed”.
On to `c1ccc2[nH]c(CCCCCCCCCCCSc3nc4ccccc4[nH]3)nc2c1` [Compound A32, 2-(11-(2'-benzimidazolylthio)undecyl)benzimidazole], for which, in data set [1] (Table 3), the activity at 5 µM came out at 62%. In data set [2] (Table 3), the Cytotoxicity entry was “Not observed”.
In the same order, the values of `CCC(=O)n1c(CCCCCSc2nc3ccccc3n2C(=O)CC)nc2ccccc21` [Compound A24, 1-propionyl-2-(5-(2'-(1-propionylbenzimidazolyl)thio)pentyl)benzimidazole] are 40% and “Not observed”.
Take `c1ccc2nc(SCCCCCSc3nc4ccccc4[nH]3)ccc2c1` [Compound B57]: the activity at 5 µM in data set [1] (Table 4) worked out at 26%. Moreover, the Cytotoxicity entry in data set [2] (Table 4) is recorded as “Not observed”.
With `Cn1c(CCCCCSc2nc3ccccc3n2C)nc2ccccc21` [Compound A26, 1-methyl-2-(5-(2'-(1-methylbenzimidazolyl)thio)pentyl)benzimidazole], the activity at 5 µM in data set [1] (Table 3) turned out to be 35%. The Cytotoxicity result in data set [2] (Table 3) was “Not observed”.
Consider `O=[N+]([O-])c1ccc2[nH]c(CCCCCSc3nc4ccccc4[nH]3)nc2c1` [Compound A30], for which, in data set [1] (Table 3), the activity at 5 µM turned out to be 52%. Besides, the Cytotoxicity entry in data set [2] (Table 3) was “Not observed”.
With `Cn1c(SCCCCCSc2ccccn2)nc2ccccc21` [Compound B64, 5-(2'-(1'-methylbenzimidazolyl)thio)-1-(2"-pyridylthio)pentane], the activity at 5 µM in data set [1] (Table 4) is 24%. In addition, the Cytotoxicity entry in data set [2] (Table 4) was “Not observed”.
For the compound `Cc1cc2nc(SCCCCCSc3ccccn3)[nH]c2cc1C` [Compound B33], in data set [1] (Table 4), the activity at 5 µM was 18%. Further, the Cytotoxicity result in data set [2] (Table 4) is recorded as “Not observed”.
In the case of `Cn1nnnc1SCCCCCSc1nc2ccccc2[nH]1` [Compound B10], the activity at 5 µM in data set [1] (Table 4) was found to be 32%. For the same compound, in data set [2] (Table 4), the Cytotoxicity result was “Not observed”.
Taken in the same sequence, the figures for `CN(C)CCSc1nnc(SCCCCCSc2nc3ccccc3[nH]2)s1` [Compound B20] were 24% and “Not observed”.
Turning to `CCOc1ccc2nc(SCCCCCSc3nc4ccccc4[nH]3)sc2c1` [Compound A35, 1-(2'-benzimidazolylthio)-5-(2"-(6"-ethoxybenzothiazolyl)thio)pentane], the activity at 5 µM in data set [1] (Table 3) amounted to 25%. Further, the Cytotoxicity result in data set [2] (Table 3) is “Not observed”.
With `CCOC(=O)c1ccc2[nH]c(SCCCCCSc3nc4ccccc4[nH]3)nc2c1` [Compound A9, 1-(2'-(5'-ethoxycarbonylbenzimidazolyl)thio)-5-(2"-benzimidazolylthio)pentane], in data set [1] (Table 3), the activity at 5 µM was 28%. The Cytotoxicity entry in data set [2] (Table 3) is given as “Not observed”.
`O=[N+]([O-])c1ccc2[nH]c(CCCCCSc3ccccn3)nc2c1` [Compound B46]: the activity at 5 µM in data set [1] (Table 4) was found to be 36%. For the same compound, the Cytotoxicity entry in data set [2] (Table 4) is recorded as “Not observed”.
Take `c1ccc2[nH]c(CCCCCSc3nc4ccccc4[nH]3)nc2c1` [Compound A27, 2-(5-(2'-benzimidazolylthio)pentyl)benzimidazole]: in data set [1] (Table 3), the activity at 5 µM came to 48%. Moreover, the Cytotoxicity entry in data set [2] (Table 3) is “Not observed”.
In the case of `c1ccc2[nH]c(SCCCCCSC3=NCCCN3)nc2c1` [Compound B54], in data set [1] (Table 4), the activity at 5 µM is 24%. For the same compound, the Cytotoxicity result in data set [2] (Table 4) was “Not observed”.
As to `S=c1sc(SCCCCCSc2nc3ccccc3[nH]2)nn1-c1ccccc1` [Compound B22], the activity at 5 µM in data set [1] (Table 4) was 21%. For the same compound, the Cytotoxicity result in data set [2] (Table 4) is recorded as “Not observed”.
In the case of `c1ccc(SCCCCCCCc2nc3ccccc3[nH]2)nc1` [Compound B47], the activity at 5 µM in data set [1] (Table 4) came out at 23%. Also, the Cytotoxicity entry in data set [2] (Table 4) is on record as “Not observed”.
Taken in the same sequence, the figures for `CCC(=O)Nc1ccc2[nH]c(SCCCCCSc3ccccn3)nc2c1` [Compound B37] were 20% and “Not observed”.
On to `Cc1ccc2[nH]c(SCCOCCSc3nc4ccccc4[nH]3)nc2c1` [Compound A21], for which the activity at 5 µM in data set [1] (Table 3) was 24%. Moreover, the Cytotoxicity result in data set [2] (Table 3) was “Not observed”.
Take `Cc1ccc2[nH]c(SCCCCCCCCSc3nc4ccccc4[nH]3)nc2c1` [Compound A20, 1-(2'-(5'-methylbenzimidazolyl)thio)-8-(2"-benzimidazolylthio)octane]: the activity at 5 µM in data set [1] (Table 3) came to 61%. Also, the Cytotoxicity result in data set [2] (Table 3) is reported as “Not observed”.
For the compound `Cc1cc2nc(SCCCCCSc3nc4cc(Cl)c(Cl)cc4[nH]3)[nH]c2cc1C` [Compound A15, 1-(2'-(5',6'-dichlorobenzimidazolyl)thio)-5-(2"-(5",6"-dimethylbenzimidazolyl)thio)pentane], the activity at 5 µM in data set [1] (Table 3) turned out to be 36%. The Cytotoxicity result in data set [2] (Table 3) is “Not observed”.
Turning to `CCC(=O)n1c(SCCCCCSc2nc3cc(S(=O)(=O)NC)ccc3n2C)nc2ccccc21` [Compound A25], in data set [1] (Table 3), the activity at 5 µM came to 32%. Further, the Cytotoxicity result in data set [2] (Table 3) is listed as “Not observed”.

Values taken from patent US6174907A, “Benzimidazole compounds containing 1,2,4-triazole ring, and compositions and methods of use containing the same” (Fuji Photo Film Co., Ltd., priority 1995, dated 2001).
